In the oligonucleotide strings, read from the 5' end, every base follows the letter of its sugar. An asterisk marks phosphorothioate; unmarked linkages are phosphodiester. Other units and linkages are bracketed, terminal groups are in braces. A string of capitals states the bases alone. e = 2'-O-(2-methoxyethyl) (MOE); [5mC] = 5-methylcytosine; d = 2'-deoxy (DNA)
Test system: human Factor 7 mRNA
Assay: Antisense inhibition of human Factor 7 mRNA in HepB3 cells, lipofectin, 50 nM, real-time RT-PCR
Assay type: cell-based
Conditions: Example 1; HepB3 cells, lipofectin, 50 nM, ~24 h, relative to untreated control cells
Procedure: Antisense oligonucleotides targeted to a Factor 7 nucleic acid were tested for their effects on Factor 7 mRNA in vitro. Cultured HepB3 cells at a density of 4,000 cells per well were transfected using lipofectin reagent with 50 nM antisense oligonucleotide. After a treatment period of approximately 24 hours, RNA was isolated from the cells and Factor 7 mRNA levels were measured by real-time RT-PCR, as described herein. Factor 7 mRNA levels were adjusted according to total RNA content as measured by RIBOGREEN®. Results are presented as percent inhibition of Factor 7, relative to untreated control cells.
(§1) Antisense oligonucleotides targeted to a Factor 7 nucleic acid were designed and tested for their effects on Factor 7 mRNA in vitro. Certain antisense oligonucleotides from Table 3 were also retested for their effects on Factor 7 mRNA in vitro. Cultured HepB3 cells at a density of 4,000 cells per well were transfected using lipofectin reagent with 50 nM antisense oligonucleotide. After a treatment period of approximately 24 hours, RNA was isolated from the cells and Factor 7 mRNA levels were measured by real-time RT-PCR, as described herein. Human Factor 7 primer probe set RTS 2927 was used to measure mRNA levels. Factor 7 mRNA levels were adjusted according to total RNA content as measured by RIBOGREEN®. Results are presented as percent inhibition of Factor 7, relative to untreated control.
as §1, with “tested” for “tested for their effects on Factor 7 mRNA in vitro. Certain antisense oligonucleotides from Table 3 were also retested”
These gapmers were designed by creating gapmers shifted slightly upstream and downstream (i.e. “microwalk”) of the original gapmers from Table 7. Gapmers were also created with various motifs, e.g. 5-10-5 MOE, 3-14-3 MOE, and 2-13-5 MOE. These gapmers were tested in vitro. Cultured HepB3 cells at a density of 4,000 cells per well were transfected using lipofectin reagent with 50 nM antisense oligonucleotide. After a treatment period of approximately 24 hours, RNA was isolated from the cells and Factor 7 mRNA levels were measured by real-time RT-PCR. Factor 7 mRNA levels were adjusted according to total RNA content, as measured by RIBOGREEN®. Results are presented as percent inhibition of Factor 7, relative to untreated control cells.

How did the “% Inhibition (human Factor 7 mRNA)” value turn out when “403090 (antisense eA*eG*eT*e[5mC]*e[5mC]*dT*dG*dG*dG*dT*d[5mC]*dA*dT*d[5mC]*dA*eG*e[5mC]*e[5mC]*eG*eG) [compound 403090]” was run?
The value was 69%.

For “403093 (antisense eG*eA*eG*eA*e[5mC]*d[5mC]*d[5mC]*dT*dG*dG*dT*dG*dT*dA*d[5mC]*eA*e[5mC]*e[5mC]*e[5mC]*e[5mC]) [compound 403093]”, which “% Inhibition (human Factor 7 mRNA)” value is on record?
Its value is 75%.

“407595 (antisense eT*e[5mC]*e[5mC]*eT*eG*dA*dG*dG*d[5mC]*d[5mC]*dT*dT*dA*dG*d[5mC]*eG*eA*e[5mC]*e[5mC]*e[5mC]) [compound 407595]” was tested. Which “% Inhibition (human Factor 7 mRNA)” value did it give?
Its value is 71%.

“407596 (antisense eG*eA*eG*eG*e[5mC]*d[5mC]*d[5mC]*d[5mC]*dG*dG*d[5mC]*dT*dT*d[5mC]*d[5mC]*eA*e[5mC]*eG*eG*e[5mC]) [compound 407596]” was tested. Which “% Inhibition (human Factor 7 mRNA)” value did it give?
The value was 61%.

For “407597 (antisense eT*eG*eT*eT*eG*dA*d[5mC]*dA*dT*dT*d[5mC]*d[5mC]*d[5mC]*d[5mC]*dA*eT*eG*eG*eG*eA) [compound 407597]”, which “% Inhibition (human Factor 7 mRNA)” value is on record?
The value was 39%.

For “407598 (antisense e[5mC]*e[5mC]*eA*eT*eG*dA*dT*dG*dA*dA*dA*dT*d[5mC]*dT*d[5mC]*eT*eG*e[5mC]*eA*eG) [compound 407598]”, which “% Inhibition (human Factor 7 mRNA)” value is on record?
Its value is 72%.

With “407599 (antisense e[5mC]*e[5mC]*eT*eG*eG*dG*dA*dG*dA*d[5mC]*d[5mC]*dA*dT*dG*dA*eT*eG*eA*eA*eA) [compound 407599]” as the substance, how does the “% Inhibition (human Factor 7 mRNA)” value read?
Its value is 73%.

For “407600 (antisense eT*eG*eA*eA*eG*d[5mC]*d[5mC]*d[5mC]*dA*dA*dG*d[5mC]*dA*dG*dA*eA*eG*eG*e[5mC]*eA) [compound 407600]”, which “% Inhibition (human Factor 7 mRNA)” value is on record?
Its value is 61%.

“407601 (antisense e[5mC]*eA*eG*e[5mC]*e[5mC]*d[5mC]*dT*dG*dA*dA*dG*d[5mC]*d[5mC]*d[5mC]*dA*eA*eG*e[5mC]*eA*eG) [compound 407601]” was tested. Which “% Inhibition (human Factor 7 mRNA)” value did it give?
The value was 52%.

“407602 (antisense e[5mC]*eT*eG*e[5mC]*eA*dG*d[5mC]*d[5mC]*dA*dG*dG*d[5mC]*dA*dG*d[5mC]*e[5mC]*e[5mC]*eT*eG*eA) [compound 407602]” was tested. Which “% Inhibition (human Factor 7 mRNA)” value did it give?
The value was 81%.

Which “% Inhibition (human Factor 7 mRNA)” value does the source give for “407603 (antisense eT*eA*eA*eG*eA*dA*dA*dT*d[5mC]*d[5mC]*dA*dG*dA*dA*d[5mC]*eA*eG*e[5mC]*eT*eT) [compound 407603]” here?
The value was 54%.

How did the “% Inhibition (human Factor 7 mRNA)” value turn out when “407604 (antisense e[5mC]*eA*e[5mC]*eA*e[5mC]*dT*dG*dG*dT*d[5mC]*d[5mC]*d[5mC]*d[5mC]*dA*dT*e[5mC]*eA*e[5mC]*eT*eG) [compound 407604]” was run?
The value was 34%.

How did the “% Inhibition (human Factor 7 mRNA)” value turn out when “407605 (antisense eT*eT*eG*eA*eG*dG*d[5mC]*dA*d[5mC]*dA*d[5mC]*dT*dG*dG*dT*e[5mC]*e[5mC]*e[5mC]*e[5mC]*eA) [compound 407605]” was run?
The value was 58%.

How did the “% Inhibition (human Factor 7 mRNA)” value turn out when “407607 (antisense eT*eG*eG*eA*eG*d[5mC]*dT*dG*dG*dT*d[5mC]*d[5mC]*dT*dT*dG*e[5mC]*eA*eG*eG*eA) [compound 407607]” was run?
The value was 76%.

For “407608 (antisense eT*eA*eT*eA*eG*dG*dA*d[5mC]*dT*dG*dG*dA*dG*d[5mC]*dT*eG*eG*eT*e[5mC]*e[5mC]) [compound 407608]”, which “% Inhibition (human Factor 7 mRNA)” value is on record?
Its value is 13%.

Which “% Inhibition (human Factor 7 mRNA)” value does the source give for “407609 (antisense eA*eG*eA*eA*eG*d[5mC]*dA*dG*dA*dT*dA*dT*dA*dG*dG*eA*e[5mC]*eT*eG*eG) [compound 407609]” here?
The value was 35%.

Which “% Inhibition (human Factor 7 mRNA)” value does the source give for “407610 (antisense eA*eG*eG*eG*eA*dG*dG*d[5mC]*dA*dG*dA*dA*dG*d[5mC]*dA*eG*eA*eT*eA*eT) [compound 407610]” here?
Its value is 31%.

How did the “% Inhibition (human Factor 7 mRNA)” value turn out when “407611 (antisense eT*e[5mC]*eT*e[5mC]*eA*d[5mC]*dA*dG*dT*dT*d[5mC]*d[5mC]*dG*dG*d[5mC]*e[5mC]*e[5mC]*eT*e[5mC]*eG) [compound 407611]” was run?
Its value is 82%.

“407612 (antisense eA*eG*eA*eT*e[5mC]*dA*dG*d[5mC]*dT*dG*dG*dT*d[5mC]*dA*dT*e[5mC]*e[5mC]*eT*eT*eG) [compound 407612]” was tested. Which “% Inhibition (human Factor 7 mRNA)” value did it give?
Its value is 82%.

How did the “% Inhibition (human Factor 7 mRNA)” value turn out when “407613 (antisense eT*eG*e[5mC]*eT*e[5mC]*dA*d[5mC]*dA*dG*d[5mC]*d[5mC]*dG*d[5mC]*d[5mC]*dG*eT*eT*e[5mC]*eT*e[5mC]) [compound 407613]” was run?
Its value is 66%.

Which “% Inhibition (human Factor 7 mRNA)” value does the source give for “407614 (antisense eT*eG*e[5mC]*eA*eG*dT*dA*d[5mC]*dT*dG*d[5mC]*dT*d[5mC]*dA*d[5mC]*eA*eG*e[5mC]*e[5mC]*eG) [compound 407614]” here?
The value was 78%.

For “407615 (antisense eG*eA*e[5mC]*eA*e[5mC]*d[5mC]*d[5mC]*d[5mC]*dG*dT*d[5mC]*dT*dG*d[5mC]*d[5mC]*eA*eG*e[5mC]*eA*eG) [compound 407615]”, which “% Inhibition (human Factor 7 mRNA)” value is on record?
Its value is 65%.

“407616 (antisense eT*eG*e[5mC]*eA*eG*dG*dA*d[5mC]*dA*d[5mC]*d[5mC]*d[5mC]*d[5mC]*dG*dT*e[5mC]*eT*eG*e[5mC]*e[5mC]) [compound 407616]” was tested. Which “% Inhibition (human Factor 7 mRNA)” value did it give?
The value was 64%.

For “407617 (antisense eT*e[5mC]*e[5mC]*eA*e[5mC]*dA*dT*dG*dG*dA*dT*dA*dT*dT*d[5mC]*eA*eA*e[5mC]*eT*eG) [compound 407617]”, which “% Inhibition (human Factor 7 mRNA)” value is on record?
The value was 67%.

With “407618 (antisense eG*eT*eA*eT*eT*dT*dT*dT*d[5mC]*d[5mC]*dA*d[5mC]*dA*dT*dG*eG*eA*eT*eA*eT) [compound 407618]” as the substance, how does the “% Inhibition (human Factor 7 mRNA)” value read?
Its value is 42%.

Which “% Inhibition (human Factor 7 mRNA)” value does the source give for “407619 (antisense eA*eG*eA*eA*eT*dA*dG*dG*dT*dA*dT*dT*dT*dT*dT*e[5mC]*e[5mC]*eA*e[5mC]*eA) [compound 407619]” here?
Its value is 64%.

With “407620 (antisense eA*eG*eG*eA*e[5mC]*d[5mC]*dT*dG*d[5mC]*d[5mC]*dA*dT*dG*dG*dA*e[5mC]*eA*e[5mC]*eT*e[5mC]) [compound 407620]” as the substance, how does the “% Inhibition (human Factor 7 mRNA)” value read?
Its value is 79%.

How did the “% Inhibition (human Factor 7 mRNA)” value turn out when “407621 (antisense eA*e[5mC]*eA*eA*e[5mC]*dA*dG*dG*dA*d[5mC]*d[5mC]*dT*dG*d[5mC]*d[5mC]*eA*eT*eG*eG*eA) [compound 407621]” was run?
Its value is 62%.

“407622 (antisense eT*e[5mC]*eA*e[5mC]*e[5mC]*dA*dA*d[5mC]*dA*dA*d[5mC]*dA*dG*dG*dA*e[5mC]*e[5mC]*eT*eG*e[5mC]) [compound 407622]” was tested. Which “% Inhibition (human Factor 7 mRNA)” value did it give?
Its value is 55%.

With “407623 (antisense eT*e[5mC]*e[5mC]*eA*eT*dT*d[5mC]*dA*d[5mC]*d[5mC]*dA*dA*d[5mC]*dA*dA*e[5mC]*eA*eG*eG*eA) [compound 407623]” as the substance, how does the “% Inhibition (human Factor 7 mRNA)” value read?
The value was 69%.

For “407624 (antisense eG*eA*eG*eA*e[5mC]*d[5mC]*dA*d[5mC]*d[5mC]*d[5mC]*dA*dG*dA*dT*dG*eG*eT*eG*eT*eT) [compound 407624]”, which “% Inhibition (human Factor 7 mRNA)” value is on record?
The value was 73%.

“407625 (antisense eT*eT*eG*eT*e[5mC]*dG*dA*dA*dA*d[5mC]*dA*dG*dT*dG*dG*eG*e[5mC]*e[5mC]*eG*e[5mC]) [compound 407625]” was tested. Which “% Inhibition (human Factor 7 mRNA)” value did it give?
The value was 100%.

Which “% Inhibition (human Factor 7 mRNA)” value does the source give for “407626 (antisense eT*e[5mC]*eT*eT*eG*dA*dT*dT*dT*dT*dG*dT*d[5mC]*dG*dA*eA*eA*e[5mC]*eA*eG) [compound 407626]” here?
Its value is 82%.

For “407627 (antisense eG*e[5mC]*e[5mC]*e[5mC]*eA*dG*d[5mC]*dA*d[5mC]*d[5mC]*dG*d[5mC]*dG*dA*dT*e[5mC]*eA*eG*eG*eT) [compound 407627]”, which “% Inhibition (human Factor 7 mRNA)” value is on record?
Its value is 79%.

How did the “% Inhibition (human Factor 7 mRNA)” value turn out when “407628 (antisense eT*eG*eA*eT*eG*dA*d[5mC]*d[5mC]*dT*dG*d[5mC]*dG*d[5mC]*d[5mC]*dA*e[5mC]*e[5mC]*e[5mC]*eG*e[5mC]) [compound 407628]” was run?
The value was 38%.

How did the “% Inhibition (human Factor 7 mRNA)” value turn out when “407629 (antisense eT*e[5mC]*eA*eG*eT*dG*dA*dG*dG*dA*d[5mC]*d[5mC]*dA*d[5mC]*dG*eG*eG*e[5mC]*eT*eG) [compound 407629]” was run?
Its value is 34%.

Which “% Inhibition (human Factor 7 mRNA)” value does the source give for “407630 (antisense e[5mC]*eA*e[5mC]*eA*eT*dG*dG*dT*d[5mC]*dA*dG*dT*dG*dA*dG*eG*eA*e[5mC]*e[5mC]*eA) [compound 407630]” here?
Its value is 29%.

Which “% Inhibition (human Factor 7 mRNA)” value does the source give for “407631 (antisense eG*eG*eG*e[5mC]*eA*d[5mC]*d[5mC]*dA*d[5mC]*dA*dT*dG*dG*dT*d[5mC]*eA*eG*eT*eG*eA) [compound 407631]” here?
Its value is 66%.
